This is an account of results in patent US20180360769A1, “SYSTEMS AND METHODS FOR TRANSDERMAL DRUG DELIVERY” (Elliptical Therapeutics, LLC, priority 2015, published 2018).

In data set [1] the test system is moderate to severe post-operative pain. Particulars: cited from earlier work.
For data set [2] the following is noted: in vivo; cited from earlier work.
For data set [3], the system named is rabbit skin. Particulars: in vivo.
The conditions of data set [4]: human subjects, cited from earlier work.
The conditions of data set [5]: animal models; cited from earlier work.

As to `O=C(c1ccccc1)c1ccc2n1CCC2C(=O)O` (racemic) [Toradol®, Ketorolac tromethamine], the adverse effects entry in data set [1] (administered orally for extended periods of time) is “gastric irritation and ulcers have been observed”. In data set [1] (single-dose, moderate to severe post-operative pain), the “efficacy compared with morphine, meperidine, or pentazocine” value was “more efficacious”.
As to `O=C(c1ccccc1)c1ccc2n1CCC2C(=O)O` (racemic) [racemic ketorolac, ketorolac], the biological half-life in data set [2] is reported as 4-6 hours.
For `O=C(c1ccccc1)c1ccc2n1CC[C@@H]2C(=O)O` [(s)-ketorolac], the “skin irritation (erythema and edema), in words” value in data set [3] is reported as “non-irritant”. For the same compound, the “plasma concentrations compared with (r)-ketorolac” value in data set [4] (after oral administration of racemic ketorolac, all sample times) is recorded as “lower”. In data set [4] (single oral solution dose), the “clearance compared with (r)-ketorolac” value is “greater” and the “plasma half-life compared with (r)-ketorolac” value was “shorter”. Further, the “potency compared with the (r)-enantiomer” value in data set [5] is “approximately twice as potent”.
As for `CCCCCCCCCCCCOS(=O)(=O)[O-].[Na+]` [SDS, 5%, sodium dodecyl sulfate], in data set [3] (New Zealand), the “Overall Edema Score” value came out at 2.0 and the “Overall Erythema Score” value stood at 1.0.
